The values below come from PMC5653977 (EMBO Molecular Medicine, 2017).

The structures appear in SMILES notation. Where a name gives a salt, the structure may show the parent alone.

One assay has as its system NRG1-ERBB4 signaling. The assay is described as follows: Nrg1-ERBB4-PIK3R1 split TEV co-culture compound screen of the NIH Clinical Collection. The class given is cell-based, human. To be noted: NIH Clinical Collection NCC-003 raw data; compounds ranked by Z-score; 'flagged' given instead of a Z-score.
As for `C[C@H]1[C@H](OC(=O)CCC(=O)O)O[C@@H]2O[C@@]3(C)CC[C@H]4[C@H](C)CC[C@@H]1[C@@]24OO3` [ARTESUNATE], the Z-SCORE entry is given as “flagged”.

The assay is the same for the next values; noted with them: compound screen of the NIH Clinical Collection, sheet raw data NCC-003; compounds ranked by Z-score.
As to `Cl.OC1CCCCC1N1CCC(c2ccccc2)CC1` (racemic) [(±)-Vesamicol hydrochloride], the Z-SCORE was -0.04.
For the compound `Cc1cc2c(s1)Nc1ccccc1N=C2N1CCN(C)CC1` [OLANZAPINE], the Z-SCORE is -0.89.
Take `CN(C)CC[C@@H](c1ccc(Cl)cc1)c1ccccn1` [DEXCHLORPHENIRAMINE MALEATE]: the Z-SCORE is -0.67.
For `Cc1cccc(Nc2ccncc2S(=O)(=O)NC(=O)NC(C)C)c1` [TORASEMIDE], the Z-SCORE turned out to be 0.4.
The compound `CCOC(=O)[C@H](CCc1ccccc1)N[C@H]1CCc2ccccc2N(CC(=O)O)C1=O` [BENAZEPRIL HCl] registered a Z-SCORE of 0.26.
With `CCC(=O)[N-]S(=O)(=O)c1ccc(-c2c(-c3ccccc3)noc2C)cc1.[Na+]` [PARECOXIB Na], the Z-SCORE is -0.3.
Regarding `CC(C)(C)C(O)/C=C/c1ccc2c(c1)OCO2` (stereo not drawn) [Stiripentol], the Z-SCORE is -0.21.
The compound `CN(C)CCN(Cc1ccccc1)c1ccccn1` [TRIPELENNAMINE HYDROCHLORIDE] came in with a Z-SCORE of 0.58.
Consider `NC(=O)c1cccnc1` [NICOTINAMIDE], for which the Z-SCORE amounted to 2.52.
In turn, `COc1ccc2[nH]cc(CCN)c2c1` [5-Methoxytryptamine] yielded a Z-SCORE of 0.65.
`C#C[C@]1(O)CC[C@H]2[C@@H]3CCc4cc(O)ccc4[C@H]3CC[C@@]21C` [ETHYNYLESTRADIOL] gave a Z-SCORE of 0.75.
The compound `Cc1nc2n(c(=O)c1CCN1CCC(c3noc4cc(F)ccc34)CC1)CCCC2` [RISPERIDONE] came in with a Z-SCORE of 0.
Take `Nc1nc2c(ncn2CCC(CO)CO)c(=O)[nH]1` [PENCICLOVIR]: the Z-SCORE is listed as -0.01.
On the same count and under the same terms, the same measure for `Cc1sc(N)c(C(=O)c2cccc(C(F)(F)F)c2)c1C` [PD 81723]: 0.13; for `O=C(O[C@H]1[C@H](Oc2ccccc2COC(=O)C2(O)C=CCCC2=O)O[C@H](CO)[C@@H](O)[C@@H]1O)c1ccccc1` (stereo partly drawn) [TREMULACIN]: 0.29.
As to `O=C1c2c(O)cc(O)cc2OC(c2ccc(O)c(O)c2)C1O` (stereo not drawn) [TAXIFOLIN-(+)], the Z-SCORE was 1.25.

Still in this assay, the particulars now being: compounds at 10 μM, 24 h; PC12 split TEV assay cells co-cultured with Nrg1-expressing PC12 cells; analysed with cellHTS2.
`CN(C)CCC=C1c2ccccc2COc2ccccc21` [DOXEPIN HYDROCHLORIDE, reference compound] showed a Z-SCORE of 1.31.
As for `C[C@]12CCC(=O)C=C1CC[C@@H]1[C@@H]2[C@@H](O)C[C@@]2(C)[C@H]1CC[C@]2(O)C(=O)CO` [HYDROCORTISONE, reference compound], the Z-SCORE was -1.61.
`CCCCNc1cc(C(=O)O)cc(S(N)(=O)=O)c1Oc1ccccc1` [BUMETANIDE, reference compound]: the Z-SCORE is given as -0.03.
Consider `CO[C@@]1(NC(=O)Cc2cccs2)C(=O)N2C(C(=O)O)=C(COC(N)=O)CS[C@@H]21` [CEFOXITIN SODIUM SALT, reference compound], for which the Z-SCORE worked out at 2.55.
For the compound `Cc1onc(-c2ccccc2)c1C(=O)N[C@@H]1C(=O)N2[C@@H]1SC(C)(C)[C@@H]2C(=O)[O-].O.[Na+]` [Micropenin, reference compound], the Z-SCORE worked out at 0.25.
`Cn1cnc([N+](=O)[O-])c1Sc1ncnc2nc[nH]c12` [Azathioprine, reference compound] showed a Z-SCORE of 0.16.
Consider `CCN(CC)CCNC(=O)c1cc(Cl)c(N)cc1OC.Cl` [Maxolon, reference compound], for which the Z-SCORE was -1.12.
`COc1cc(Cc2cnc(N)nc2N)cc(OC)c1OC` [Trimethoprim, reference compound] yielded a Z-SCORE of 0.28.
On to `COc1cc(NC(C)CCCN)c2ncccc2c1` (stereo not drawn) [Primaquine Diphosphate, reference compound], for which the Z-SCORE was -0.7.
Regarding `CCCNC(=O)NS(=O)(=O)c1ccc(Cl)cc1` [Chlorpropamide, reference compound], the Z-SCORE was -0.07.
